Assay results reported in US20260174797A1, “MAGNESIUM AND TRACE ELEMENT OXIDE PREMIX FOR ANIMAL NUTRITIONAL SUPPLEMENTATION, AND MANUFACTURING METHOD” (TIMAB MAGNESIUM, priority 2022, published 2026).
Marks after values point to notes of the source that are not given here.

Legend:
[1] = In vivo piglet test: growth performance (weight gain, feed consumption) D0 to D42 post-weaning; parameters: species or system piglets (Danbred×Duroc); conditions: for Daily weight gain: Overall period D0 to D42
Protocol: The effect of the premix of the invention on the performance and health of piglets in the post-weaning pre-starter stage (0-14 days post-weaning) was evaluated and compared to a standard oxide.
The use of the product of the invention ZnO—MgO was compared with standard zinc oxide at nutritional dose as well as at pharmacological dose in the contents indicated in Table 3.
Piglet weight was measured from D0 to D42 post-weaning in order to record daily weight gain and total weight at the end of the test. Feed consumption of each animal was also recorded each day of the test and recorded as an average to assess the feed conversion ratio (FCR). The FCR corresponds to the conversion index CI. It is equal to the average daily consumption reported to the average daily weight gain. The mean values+/−the standard deviation are presented per treatment.

[2] = in vivo
Description: Each piglet is tagged, weighed and allocated in groups of 8 piglets per pen.
Analyses of the faeces after 14 days of use of the different treatments allowed to assess the amount of zinc not used by the animal and thus released into the soil, contributing to pollution.

Caco2 cells = conditions: Caco-2
[3] = Control Negative: ZnO 150 ppm additive (120 ppm zinc)
[4] = Control Positive: ZnO 3261 ppm additive (2620 ppm zinc)
[5] = Pre-starter phase D0 to D14, Control Negative: ZnO 150 ppm additive (120 ppm zinc)
[6] = Pre-starter phase D0 to D14, Control Positive: ZnO 3261 ppm additive (2620 ppm zinc)

Compound	Live weight Day 0 [1, 3]	Live weight Day 14 [1, 3]	Live weight Day 42 [1, 3]	Live weight Day 0 [1, 4]	Live weight Day 14 [1, 4]	Live weight Day 42 [1, 4]	Daily weight gain [1, 3]	Daily weight gain [1, 4]	Average daily feed consumption [1, 5]	Average daily weight gain [1, 5]	Feed conversion ratio [1, 5]	Average daily feed consumption [1, 6]	Average daily weight gain [1, 6]	Feed conversion ratio [1, 6]	Average daily weight gain ([1]; Starter phase D15 to D42, Control Negative: ZnO 150 ppm additive (120 ppm zinc))	Average daily weight gain ([1]; Starter phase D15 to D42, Control Positive: ZnO 3261 ppm additive (2620 ppm zinc))	zinc content measured in the feces [2]	Total Zn absorbed on cell (Caco2 cells)
[O]=[Zn] [Control, ZnO]	6.75 kg	9.61^b kg	26.15^ab kg	6.74 kg	10.01^ab kg	25.33^b kg	0.463^ab kg/day	0.444^b kg/day	0.380 kg/day	0.205^b kg/day	1.863^a kg/kg	0.395 kg/day	0.233^ab kg/day	1.705^b kg/kg	0.611^ab kg/day	0.571^b kg/day	925 ppm	–
ZnO—MgO [Premix of the invention MgO—ZnO]	–	–	–	–	–	–	–	–	–	–	–	–	–	–	–	–	–	1.89 mg/L
